Laboratory results published in patent US11358940B2, “K-Ras modulators” (THE REGENTS OF THE UNIVERSITY OF CALIFORNIA, priority 2017, dated 2022).

Tests used:
[1] = tested on: KRAS4b G12D, KRAS4b G12V, HRas WT/P53-, and SUIT-2; assay: Cell proliferation experiments with analogues of FNL-0045; type: cell-based; conditions: FIG. 15B
Method: (§1) Cell viability in the presence of compounds (discussed in examples above) was measured using CellTiter-Glo (Promega). Cells were plated in black-walled 384-well plates (Greiner, 781091) at densities in accordance with their doubling time (for MEFs typically 1,000 cells/well in 20 μl), using the Multidrop Combi Reagent Dispenser (Thermo). They were then incubated overnight at 37° C. in a humidified atmosphere of 5% CO2 prior to compound addition.
Compound and dimethylsulfoxide (DMSO) addition to microplates was performed using the Access Laboratory Workstation (Labcyte) and Echo 555 (Labcyte) liquid handler. Source plates with compounds and DMSO were prepared and the Echo 555 was used to transfer 50 nL of compound, DMSO, or both to the appropriate wells. […] of complete culture medium was added to all wells of the microplate after compound addition. […]
Cells were incubated with compounds for 72 h. […] Cellular ATP levels (an indicator of cell count) were determined with CellTiter-Glo (CTG, Promega G7573) luminescence assay, using an EnVision Plate Reader (PerkinElmer).
Plates were harvested at two time points. […] After 72 h incubation, the compound treated plates were harvested using CTG reagent and luminescence read using the EnVision giving control growth (C) and compound treated well (T72) measurements. Growth inhibition was calculated by: […]

[2] = tested on: HupT4 pancreas carcinoma cells; assay: Growth arrest in HupT4 cells; type: cell-based; conditions: 24 h
Method: as §1
Compound and dimethylsulfoxide (DMSO) addition to microplates was performed using the Access Laboratory Workstation (Labcyte) and Echo 555 (Labcyte) liquid handler. Source plates with compounds and DMSO were prepared and the Echo 555 was used to transfer 50 nL of compound, DMSO, or both to the appropriate wells. […] of complete culture medium was added to all wells of the microplate after compound addition. The highest final concentration in each assay was 100 μM or 50 μM with between seven to 12 dilutions. The final DMSO concentration in all wells was 0.2%.
[…] All conditions were done in triplicates and experiments performed at least thrice. Cellular ATP levels (an indicator of cell count) were determined with CellTiter-Glo (CTG, Promega G7573) luminescence assay, using an EnVision Plate Reader (PerkinElmer).
Plates were harvested at two time points. […] Growth inhibition was calculated by: […]

[3] = molecular target: farnesylated and carboxymethylated KRas (FMe-KRas) (Homo sapiens, UniProt P01116); assay: MALDI-TOF analysis of labeling of fully processed KRas; type: binding
Chain of farnesylated and carboxymethylated KRas (FMe-KRas) (P01116 2-185 isoform P01116-2 limits assumed): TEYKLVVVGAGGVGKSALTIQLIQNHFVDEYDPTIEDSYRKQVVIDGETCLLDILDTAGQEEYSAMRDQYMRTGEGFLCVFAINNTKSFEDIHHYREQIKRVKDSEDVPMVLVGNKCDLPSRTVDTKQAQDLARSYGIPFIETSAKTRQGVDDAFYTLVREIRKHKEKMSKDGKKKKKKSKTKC

[4] = molecular target: T1, KRas H95C (1-169) (Homo sapiens, UniProt P01116, H95C); assay: MALDI-TOF analysis of KRas H95C reacted with compound; type: binding; conditions: reacted for 24 h
T1 construct: we generated Kras4b H95C (1-169) mutant protein; made in house
T1 sequence (P01116 1-169 isoform P01116-2 H95C): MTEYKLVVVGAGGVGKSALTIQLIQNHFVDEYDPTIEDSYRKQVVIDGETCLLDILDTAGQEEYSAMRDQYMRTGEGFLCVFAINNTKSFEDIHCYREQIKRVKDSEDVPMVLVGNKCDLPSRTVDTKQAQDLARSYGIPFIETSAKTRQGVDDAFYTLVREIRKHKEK
Source text: Next, we reacted all three epoxides synthesized (structures depicted in FIG. 10A) with KRas H95C (1-169) to investigate reactivity at that site.
Single enantiomers of FNL-0012, compounds […] and FNL-0044 (R), then corresponding single enantiomers of FNL-0030, compounds FNL-0043 (S) and FNL-0045 (R), were synthesized (FIG. 14A). These enantiomers were investigated using a MALDI-TOF MS screen using KRAS4b (1-169) H95C, and also cell-based assays.

| Compound | proliferation assay, R enantiomer compared with S enantiomer FNL-0090 [1] | growth arrest / cell proliferation [2] | covalent labeling of FMe-KRas [3] | covalent modification of C95 [4] |
| --- | --- | --- | --- | --- |
| Cn1nc(C(=O)NCc2cn(C[C@@H]3CO3)nn2)c2ccccc21 [FNL-0088] | compared favorably | – | – | – |
| O=C(Cc1ccc(Cl)c(Cl)c1)NCC1CO1 (stereo not shown) [FNL-0010] | – | did not affect cell proliferation | did not label | covalently labeled C95 |
